Results: US20060100245A1, “Substituted biphenyl-4-carboxylic acid arylamide analogues” (Neurogen Corporation, priority 2002, published 2006)

Biological target: T1, human capsaicin receptor (VR1) (Homo sapiens, UniProt Q8NER1)
T1 construct: transfected with the pBK-CMV expression construct encoding the full length human capsaicin receptor; expressed in transfected cells
Assay: Capsaicin receptor binding assay ([3H]RTX competition)
Details: read-out: Ki
Excerpt: This Example illustrates the preparation of VR1-transfected cells and membrane preparations for use in binding assays (Example 5) and functional assays (Example 6).
A cDNA encoding full length human capsaicin receptor (SEQ ID NO: 1, 2 or 3 of U.S. Pat. No. 6,482,611) was subcloned in the plasmid pBK-CMV (Stratagene, La Jolla, Calif.) for recombinant expression in mammalian cells.
Human embryonic kidney (HEK293) cells were transfected with the pBK-CMV expression construct encoding the full length human capsaicin receptor using standard methods. The transfected cells were selected for two weeks in media containing G418 ([…]) to obtain a pool of stably transfected cells. Independent clones were isolated from this pool by limiting dilution to obtain clonal stable cell lines for use in subsequent experiments.
For radioligand binding experiments, cells were seeded in T175 cell culture flasks in media without antibiotics and grown to approximately 90% confluency. The flasks were then washed with PBS and harvested in PBS containing 5 mM EDTA. The cells were pelleted by gentle centrifugation and stored at −80° C. until assayed.
Previously frozen cells were disrupted with the aid of a tissue homogenizer in ice-cold HEPES homogenization buffer (5mM KCl 5, 5.8 mM NaCl, 0.75 mM CaCl2, 2 mM MgCl2, 320 mM sucrose, and 10 mM HEPES pH 7.4). Tissue homogenates were first centrifuged for 10 minutes at 1000×g (4° C.) to remove the nuclear fraction and debris, and then the supernatant from the first centrifugation is further centrifuged for 30 minutes at 35,000×g (4° C.) to obtain a partially purified membrane fraction. Membranes were resuspended in the HEPES homogenization buffer prior to the assay. An aliquot of this membrane homogenate is used to determine protein concentration via the Bradford method (BIO-RAD Protein Assay Kit, #500-0001, BIO-RAD, Hercules, Calif.).
This Example illustrates a representative assay of capsaicin receptor binding that may be used to determine the binding affinity of compounds for the capsaicin (VR1) receptor.
Binding studies with [^3H] Resiniferatoxin (RTX) are carried out essentially as described by Szallasi and Blumberg (1992) J. Pharmacol. Exp. Ter. 262: 883-888. In this protocol, non-specific RTX binding is reduced by adding bovine alpha, acid glycoprotein (100 μg per tube) after the binding reaction has been terminated.
[^3H] RTX (37 Ci/mmol) is synthesized by and obtained from the Chemical Synthesis and Analysis Laboratory, National Cancer Institute-Frederick Cancer Research and Development Center, Frederick, Md. [^3H] RTX may also be obtained from commercial vendors (e.g., Amersham Pharmacia Biotech, Inc.; Piscataway, N.J.).
The membrane homogenate of Example 4 is centrifuged as before and resuspended to a protein concentration of 333 μg/ml in homogenization buffer. Binding assay mixtures are set up on ice and contain [^3H]JRTX (specific activity 2200 mCi/ml), 2 μl non-radioactive test compound, 0.25 mg/ml bovine serum albumin (Cohn fraction V), and 5×10^4−1×10^5 VR1-transfected cells. The final volume is adjusted to 500 μl (for competition binding assays) or 1,000 μl (for saturation binding assays) with the ice-cold HEPES homogenization buffer solution (pH 7.4) described above. Non-specific binding is defined as that occurring in the presence of 1 μM non-radioactive RTX (Alexis Corp.; San Diego, Calif.). For saturation binding, [^3H]RTX is added in the concentration range of […], using 1 to 2 dilutions. Typically 11 concentration points are collected per saturation binding curve.
Competition binding assays are performed in the presence of 60 pM [^3H]RTX and various concentrations of test compound. The binding reactions are initiated by transferring the assay mixtures into a 37° C. water bath and are terminated following a 60 minute incubation period by cooling the tubes on ice.

T1 sequence (Q8NER1 whole entry): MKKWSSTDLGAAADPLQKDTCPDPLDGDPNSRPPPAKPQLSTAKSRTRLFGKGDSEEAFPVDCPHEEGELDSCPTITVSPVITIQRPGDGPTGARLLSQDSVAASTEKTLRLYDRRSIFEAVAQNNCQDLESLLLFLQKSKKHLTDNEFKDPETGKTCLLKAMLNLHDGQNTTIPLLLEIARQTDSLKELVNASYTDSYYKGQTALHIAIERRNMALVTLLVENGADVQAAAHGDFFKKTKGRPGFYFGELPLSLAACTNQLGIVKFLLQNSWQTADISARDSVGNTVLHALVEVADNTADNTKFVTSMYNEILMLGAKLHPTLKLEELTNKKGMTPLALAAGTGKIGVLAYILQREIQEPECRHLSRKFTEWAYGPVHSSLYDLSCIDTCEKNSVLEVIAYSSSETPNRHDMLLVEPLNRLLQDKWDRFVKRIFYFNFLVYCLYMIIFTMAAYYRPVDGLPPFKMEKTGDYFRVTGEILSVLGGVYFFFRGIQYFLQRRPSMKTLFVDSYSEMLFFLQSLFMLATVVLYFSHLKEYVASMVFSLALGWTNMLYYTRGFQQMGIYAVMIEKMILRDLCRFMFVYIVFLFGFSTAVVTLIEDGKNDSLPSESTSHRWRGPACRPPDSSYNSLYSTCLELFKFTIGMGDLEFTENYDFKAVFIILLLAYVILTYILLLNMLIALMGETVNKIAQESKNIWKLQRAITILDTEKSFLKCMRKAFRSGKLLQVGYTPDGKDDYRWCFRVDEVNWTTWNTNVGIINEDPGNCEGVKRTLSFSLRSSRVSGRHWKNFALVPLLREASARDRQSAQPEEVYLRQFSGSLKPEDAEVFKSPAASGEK

Structure (SMILES) | Ki [µM]
O=C(Nc1ccc(F)cc1)c1ccc(-c2ncccc2F)cc1 [Compound 375, N-(4-Fluoro-phenyl)-4-(3-fluoro-pyridin-2-yl)-benzamide] | < 1
CC(C)(C)c1ccc(NC(=O)c2ccc(-c3c(F)cccc3F)nc2)cc1 [Compound 438, N-(4-tert-Butyl-phenyl)-6-(2,6-difluoro-phenyl)-nicotinamide] | < 1
CC(C)c1ccc(NC(=O)c2ccc(-c3cccc(F)c3)nc2)cc1 [Compound 127, 6-(3-Fluoro-phenyl)-N-(4-isopropyl-phenyl)-nicotinamide] | < 1
CC(C)c1ccc(-c2ccc(C(=O)Nc3ccc(Br)c(Cl)c3)cn2)cc1 [Compound 321, N-(4-Bromo-3-chloro-phenyl)-6-(4-isopropyl-phenyl)-nicotinamide] | < 1
O=C(Nc1ccc2c(c1)CCC2)c1ccc(-c2cccc(Cl)c2)nc1 [Compound 116, 6-(3-Chloro-phenyl)-N-indan-5-yl-nicotinamide] | < 1
CC(C)(C)c1ccc(NC(=O)c2ccc(-c3cnc4ccccc4c3)cc2)cc1 [Compound 434, N-(4-tert-Butyl-phenyl)-4-quinolin-3-yl-benzamide] | < 1
CCCCS(=O)(=O)Nc1cccnc1-c1ccc(C(=O)Nc2ccc(C(C)(C)C)cc2)cc1 [Compound 37, 4-[3-(Butane-1-sulfonylamino)-pyridin-2-yl]-N-(4-eert-butyl-phenyl)-benzamide] | < 1
CC(C)(C)c1ccc(NC(=O)c2ccc(-c3ccncc3)cc2)cc1 [Compound 432, N-(4-tert-Butyl-phenyl)-4-pyridin-4-yl-benzamide] | < 1
CC(C)(C)c1ccc(NC(=O)c2ccc(-c3ccncc3N(S(C)(=O)=O)S(C)(=O)=O)cc2)cc1 [Compound 427, N-(4-tert-Butyl-phenyl)-4-[3-(N,N-dimethanesulfonyl)amino-pyridin-4-yl]-benzamide] | < 1
O=C(Nc1ccc(C(F)(F)F)cc1)c1ccc(-c2ccccc2Cl)nc1 [Compound 78, 6-(2-Chloro-phenyl)-N-(4-trifluoromethyl-phenyl)-nicotinamide] | < 1
COc1cccc(NC(=O)c2ccc(-c3ccc(C(C)C)cc3)nc2)c1 [Compound 147, 6-(4-Isopropyl-phenyl)-N-(3-methoxy-phenyl)-nicotinamide] | < 1
CC(C)(C)c1ccc(NC(=O)c2ccc(-c3ncccc3NS(C)(=O)=O)cc2)cc1 [Compound 413, N-(4-tert-Butyl-phenyl)-4-(3-methanesulfonylamino-pyridin-2-yl)-benzamide] | < 1
COc1cccc(NC(=O)c2ccc(-c3ccccc3)nc2)c1 [Compound 282, N-(3-Methoxy-phenyl)-6-phenyl-nicotinamide] | < 1
O=C(Nc1ccc(C(F)(F)F)cc1)c1ccc(-c2cccc(OC(F)(F)F)c2)nc1 [Compound 135, N-(4-Trifluoromethyl-phenyl)-6-(3-Trifluoromethoxy-phenyl)-nicotinamide] | < 1
CC(C)(C)c1ccc(NC(=O)c2ccc(-c3ncccc3C(F)(F)F)cc2[N+](=O)[O-])cc1 [Compound 395, N-(4-tert-Butyl-phenyl)-2-nitro-4-(3-trifluoromethyl-pyridin-2-yl)-benzamide] | < 1
CC(C)(C)c1ccc(NC(=O)c2ccc(-c3ncccc3C#N)cc2)cc1 [Compound 405, N-(4-tert-Butyl-phenyl)-4-(3-cyano-pyridin-2-yl)-benzamide] | < 1
O=C(Nc1ccc(S(=O)(=O)C(F)(F)F)cc1)c1ccc(-c2ncccc2C(F)(F)F)cc1[N+](=O)[O-] [Compound 18, 2-Nitro-N-(4-trifluoromethanesulfonyl-phenyl)-4-(3-trifluoromethyl-pyridin-2-yl)-benzamide] | < 1
CC(C)(C)c1ccc(NC(=O)c2ccc(-c3ncccc3NS(=O)(=O)c3ccccc3)cc2)cc1 [Compound 25, 4-(3-Benzenesulfonylamino-pyridin-2-yl)-N-(4-tert-butyl-phenyl)-benzamide] | < 1

Structure (SMILES) | Ki [µM]
CCOc1cccc(-c2ccc(C(=O)Nc3ccc(C)c(F)c3)cn2)c1 [Compound 120, 6-(3-Ethoxyphenyl)-N-(3-fluoro-4-methyl-phenyl)-nicotinamide] | < 1
CC(C)(C)c1ccc(NC(=O)c2ccc(-c3ncccc3N)cc2)cc1 [Compound 23, 4-(3-Amino-pyridin-2-yl)-N-(4-tert-butyl-phenyl)-benzamide] | < 1
Cc1ccccc1-c1ccc(C(=O)Nc2ccc(C(C)(C)C)cc2)cn1 [Compound 453, N-(4-tert-Butyl-phenyl)-6-o-tolyl-nicotinamide] | < 1
O=C(Nc1ccc2c(c1)CCC2)c1ccc(-c2cccc(OC(F)(F)F)c2)nc1 [Compound 464, N-Indan-5-yl-6-(3-trifluoromethoxy-phenyl)-nicotinamide] | < 1
COc1cccc(-c2ccc(C(=O)Nc3ccc(C)c(C)c3)cn2)c1 [Compound 241, N-(3,4-Dimethyl-phenyl)-6-(3-methoxy-phenyl)-nicotinamide] | < 1
CC(C)(C)c1ccc(NC(=O)c2ccc(-c3ccccc3C(F)(F)F)nc2)cc1 [Compound 447, N-(4-tert-Butyl-phenyl)-6-(2-trifluoromethyl-phenyl)-nicotinamide] | < 1
COc1cc(NC(=O)c2ccc(-c3ccccc3)cc2)ccc1Cl [Compound 189, Biphenyl-4-carboxylic acid (4-chloro-3-methoxy-phenyl)-amide] | < 1
O=C(Nc1ccc(C(F)(F)F)cc1)c1ccc(-c2ccccc2F)nc1 [Compound 92, 6-(2-Fluoro-phenyl)-N-(4-trifluoromethyl-phenyl)-nicotinamide] | < 1
CCOc1cccc(-c2ccc(C(=O)Nc3ccc4sc(C)nc4c3)cn2)c1 [Compound 119, 6-(3-Ethoxy-phenyl)-N-(2-smethyl-benzothiazol-5-yl)-nicotinamide] | < 1
O=C(Nc1ccc(Cl)cc1)c1ccc(-c2ccccc2F)nc1 [Compound 348, N-(4-Chloro-phenyl)-6-(2-fluoro-phenyl)-nicotinamide] | < 1
O=C(Nc1ccc2c(c1)CCC2)c1ccc(-c2ccccc2)nc1 [Compound 471, N-Indan-5-yl-6-phenyl-nicotinamide] | < 1
Cc1cccc(-c2ccc(C(=O)Nc3ccc(C(C)(C)C)cc3)cn2)c1 [Compound 452, N-(4-tert-Butyl-phenyl)-6-m-tolyl-nicotinamide] | < 1
Cc1nnc(-c2cccnc2-c2ccc(C(=O)Nc3ccc(C(C)(C)C)cc3)cc2)o1 [Compound 424, N-(4-tert-Butyl-phenyl)-4-[3-(5-methyl-[1,3,4]oxadiazol-2-yl)-pyridin-2-yl]-benzamide] | < 1
CC(C)(C)c1ccc(NC(=O)c2ccc(-c3ncccc3Cl)cc2)cc1 [Compound 404, N-(4-tert-Butyl-phenyl)-4-(3-chloro-pyridin-2-yl)-benzamide] | < 1
CC(C)(C)c1ccc(NC(=O)c2cnc(-c3ccccc3Cl)c(Cl)c2)cc1 [Compound 435, N-(4-tert-Butyl-phenyl)-5-chloro-6-(2-chloro-phenyl)-nicotinamide] | < 1
O=C(Nc1ccc(C(F)(F)F)cn1)c1ccc(-c2ncccc2Cl)cc1 [Compound 28, 4-(3-Chloro-pyridin-2-yl)-N-(5-trifluoromethyl-pyridin-2-yl)-benzamide] | < 1
CC(C)(C)[C@H]1CC[C@H](NC(=O)c2ccc(-c3ncccc3Cl)cc2)CC1 [Compound 392, N-(4-tert-Butyl-cyclohexyl)-4-(3-chloro-pyridin-2-yl)-benzamide (trans)] | < 1
COc1cccc(-c2ccc(C(=O)Nc3ccc4c(c3)CCC4)cn2)c1 [Compound 463, N-Indan-5-yl-6-(3-methoxy-phenyl)-nicotinamide] | < 1
